Consider one molecule from patent US20230146395A1, “Substituted Pyrimidines and Uses Thereof” (Verge Analytics, Inc., priority 2020, published 2023).

Structures are written as SMILES. Counter-ions that a name gives are not always drawn.

As a reminder, the EC50 is the concentration that produces a half-maximal response. One may read the IC50 as the midpoint of a concentration-inhibition curve.

Assay [1] relates to ALS patient (SOD1 A4V) iPSC derived motor neurons. Description: iPSC MN Survival assay (GFP imaging, six days, hazard ratio from Cox regression). The assay is classed as cell-based. Conditions: Homo sapiens, survival rescue, read-out: C9 iPSC MN Significant survival rescue EC50.
Assay [2] addresses T1, Full length human recombinant PIKFYVE (Homo sapiens, UniProt Q9Y2I7).
T1 construct: Full length human recombinant PIKFYVE; purchased Carna Biosciences (Kobe, Japan); host or cells: baculovirus expression system
Description: Inhibition of PIKfyve (microfluidic electrophoresis kinase assay, PI3P/PS substrate). The assay is classed as biochemical. Conditions: 12 concentrations. The essentials: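 GST-tagged full-length human PIKFYVE (baculovirus; 2 nM) with fluorescent PI3P/PS (1 μM PI3P) and […] in pH 7.5 HEPES with Mg2+/Mn2+, 1% DMSO, 3 h at room temperature. PI(3,5)P product/substrate ratio read by microfluidic electrophoresis; 12-point % inhibition versus no-enzyme and DMSO controls.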

In assay [3] the target is T2, PI3Kγ (Homo sapiens, UniProt P48736).
T2 construct: Full length N-terminal; His (N); host or cells: SF9 cells (baculovirus)
T2 sequence (P48736 whole entry): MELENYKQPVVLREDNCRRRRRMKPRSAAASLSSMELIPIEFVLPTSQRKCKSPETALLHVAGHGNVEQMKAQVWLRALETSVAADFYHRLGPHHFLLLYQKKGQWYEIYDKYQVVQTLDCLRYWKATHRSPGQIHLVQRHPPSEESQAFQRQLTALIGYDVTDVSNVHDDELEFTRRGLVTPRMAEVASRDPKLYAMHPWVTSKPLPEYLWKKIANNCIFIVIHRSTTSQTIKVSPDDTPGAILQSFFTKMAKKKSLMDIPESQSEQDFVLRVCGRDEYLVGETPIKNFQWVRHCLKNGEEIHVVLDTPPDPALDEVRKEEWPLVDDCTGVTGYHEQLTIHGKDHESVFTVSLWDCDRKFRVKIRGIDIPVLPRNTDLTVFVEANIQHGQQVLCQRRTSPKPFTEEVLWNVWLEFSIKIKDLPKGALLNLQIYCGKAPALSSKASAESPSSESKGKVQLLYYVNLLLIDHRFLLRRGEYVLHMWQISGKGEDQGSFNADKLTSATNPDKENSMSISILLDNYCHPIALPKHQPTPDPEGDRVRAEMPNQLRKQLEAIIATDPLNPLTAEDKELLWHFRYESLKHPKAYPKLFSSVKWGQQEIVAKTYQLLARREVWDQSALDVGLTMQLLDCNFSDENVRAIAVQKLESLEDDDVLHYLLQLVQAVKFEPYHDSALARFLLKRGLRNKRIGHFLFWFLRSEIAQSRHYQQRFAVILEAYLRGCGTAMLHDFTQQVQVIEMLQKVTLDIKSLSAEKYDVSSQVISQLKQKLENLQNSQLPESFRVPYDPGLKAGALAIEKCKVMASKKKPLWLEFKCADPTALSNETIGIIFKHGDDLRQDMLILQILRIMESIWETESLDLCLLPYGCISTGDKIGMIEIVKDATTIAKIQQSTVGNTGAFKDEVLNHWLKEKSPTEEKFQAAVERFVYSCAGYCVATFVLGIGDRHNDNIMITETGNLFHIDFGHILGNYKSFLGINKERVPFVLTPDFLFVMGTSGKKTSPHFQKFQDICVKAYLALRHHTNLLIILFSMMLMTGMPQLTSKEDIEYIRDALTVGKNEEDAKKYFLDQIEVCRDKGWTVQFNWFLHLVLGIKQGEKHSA
Briefly: Inhibition of PI3K isoforms: PI3Kγ (microfluidic electrophoresis kinase assay, PIP2/PS substrate). The class given is biochemical. Conditions: p120γ, ATP 100 μM; read-out: PI3Kg IC50. The procedure: (§1) The kinase substrate was prepared by mixing and sonicating fluorescently-labeled phosphatidylinositol 4,5-phosphate (PIP2) with phospho-L-serine (PS) at 1:20 ratio in 50 mM HEPES buffer pH7.5.
The kinase reactions were assembled in 384-well plates (Greiner) in a total volume of […] as follows. The kinase proteins were pre-diluted in an assay buffer comprising 50 mM HEPES, pH 7.5, 0.012% CHAPS, 1 mM DTT, 10 mM Na3VaO4, 10 mM 3-GP, 3 mM MgCl2, and 40 mM NaCl2, and dispensed into a 384-well plate (10 μL per well). Test compounds were serially pre-diluted in DMSO and added to the protein samples by acoustic dispensing (Labcyte Echo). The concentration of DMSO was equalized to 1% in all samples. All test compounds were tested at 12 concentrations. […] Terminated plates were analyzed on a microfluidic electrophoresis instrument (Caliper LabChip® 3000, Caliper Life Sciences/Perkin Elmer). The change in the relative fluorescence intensity of the PI(4,5)P substrate and PI(3,4,5)P product peaks was measured. The activity in each test sample was determined as the product to sum ratio (PSR): P/(S+P), where P is the peak height of the product, and S is the peak height of the substrate. Percent inhibition (Pinh) was determined using the following equation: […]

Assay [4] deals with T3, PI3Kα (Homo sapiens, UniProt P42336).
T3 construct: Full-length N-terminal; FLAG (N); host or cells: SF9 cells (baculovirus)
T3 sequence (P42336 whole entry): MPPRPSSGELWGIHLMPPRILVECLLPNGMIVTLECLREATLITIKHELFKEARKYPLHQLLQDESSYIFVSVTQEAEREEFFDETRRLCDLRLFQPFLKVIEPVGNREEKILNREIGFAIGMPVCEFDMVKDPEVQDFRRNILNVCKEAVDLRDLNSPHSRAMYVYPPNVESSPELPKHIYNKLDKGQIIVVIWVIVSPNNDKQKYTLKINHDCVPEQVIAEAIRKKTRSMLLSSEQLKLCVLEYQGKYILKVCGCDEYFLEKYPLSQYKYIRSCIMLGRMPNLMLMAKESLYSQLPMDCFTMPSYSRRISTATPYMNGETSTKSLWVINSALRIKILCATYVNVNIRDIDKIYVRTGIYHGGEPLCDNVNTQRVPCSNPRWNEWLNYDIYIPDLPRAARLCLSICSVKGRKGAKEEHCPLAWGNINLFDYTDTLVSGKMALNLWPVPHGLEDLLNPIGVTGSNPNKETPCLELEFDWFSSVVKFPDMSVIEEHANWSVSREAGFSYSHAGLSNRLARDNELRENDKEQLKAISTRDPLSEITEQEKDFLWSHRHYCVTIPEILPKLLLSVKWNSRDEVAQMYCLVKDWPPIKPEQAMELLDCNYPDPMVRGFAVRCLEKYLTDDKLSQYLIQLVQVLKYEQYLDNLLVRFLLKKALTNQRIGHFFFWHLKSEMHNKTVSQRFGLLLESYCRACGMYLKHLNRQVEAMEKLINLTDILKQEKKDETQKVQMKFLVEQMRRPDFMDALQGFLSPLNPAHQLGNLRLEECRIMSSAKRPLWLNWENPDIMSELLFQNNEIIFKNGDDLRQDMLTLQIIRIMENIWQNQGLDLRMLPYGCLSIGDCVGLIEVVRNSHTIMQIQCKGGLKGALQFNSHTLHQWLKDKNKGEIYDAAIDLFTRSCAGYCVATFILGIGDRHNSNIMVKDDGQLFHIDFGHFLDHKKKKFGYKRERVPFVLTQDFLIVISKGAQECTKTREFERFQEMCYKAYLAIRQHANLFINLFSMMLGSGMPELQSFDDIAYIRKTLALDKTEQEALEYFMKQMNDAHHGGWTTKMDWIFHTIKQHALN
T3 sequence (P27986 whole entry partner): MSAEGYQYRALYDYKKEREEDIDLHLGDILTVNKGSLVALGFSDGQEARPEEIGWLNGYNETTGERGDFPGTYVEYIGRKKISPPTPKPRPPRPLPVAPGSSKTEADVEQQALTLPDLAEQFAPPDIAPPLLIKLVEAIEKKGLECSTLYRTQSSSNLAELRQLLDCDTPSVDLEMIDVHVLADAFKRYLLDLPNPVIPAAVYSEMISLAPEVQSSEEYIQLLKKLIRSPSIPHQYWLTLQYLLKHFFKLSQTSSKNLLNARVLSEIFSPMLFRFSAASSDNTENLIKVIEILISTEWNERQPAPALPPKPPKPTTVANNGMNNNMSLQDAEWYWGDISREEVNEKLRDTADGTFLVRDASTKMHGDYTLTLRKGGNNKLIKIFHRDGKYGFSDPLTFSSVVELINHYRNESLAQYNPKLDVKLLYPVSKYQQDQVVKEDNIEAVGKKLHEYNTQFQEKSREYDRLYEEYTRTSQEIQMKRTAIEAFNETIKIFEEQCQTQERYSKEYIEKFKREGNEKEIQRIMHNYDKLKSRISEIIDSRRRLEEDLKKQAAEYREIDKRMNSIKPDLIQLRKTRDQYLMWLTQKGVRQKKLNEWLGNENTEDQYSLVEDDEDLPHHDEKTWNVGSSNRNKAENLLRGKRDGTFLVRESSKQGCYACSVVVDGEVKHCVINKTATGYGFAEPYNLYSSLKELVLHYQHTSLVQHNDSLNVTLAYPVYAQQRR
Description: Inhibition of PI3K isoforms: PI3Kα (microfluidic electrophoresis kinase assay, PIP2/PS substrate). The note with it: p110α/p85α, ATP 90 μM; read-out: PI3Ka IC50. The assay is classed as biochemical. The procedure:
as §1
The kinase reactions were assembled in 384-well plates (Greiner) in a total volume of […] as follows. The kinase proteins were pre-diluted in an assay buffer comprising 50 mM HEPES, pH 7.5, 0.012% CHAPS, 1 mM DTT, 10 mM Na3VaO4, 10 mM 3-GP, 3 mM MgCl2, and 40 mM NaCl2, and dispensed into a 384-well plate (10 μL per well). Test compounds were serially pre-diluted in DMSO and added to the protein samples by acoustic dispensing (Labcyte Echo). The concentration of DMSO was equalized to 1% in all samples. All test compounds were tested at 12 concentrations. The control samples (0%-inhibition in the absence of inhibitor, DMSO only) and 100%-inhibition (in the absence of enzyme) were assembled in replicates of four and were used to calculate %-inhibition in the presence of test compounds. The reactions were initiated by addition of 10 μL of the PIP2/PS substrate supplemented with ATP. The final concentration of enzymes was 0.5 nM (PI3Kα), 1 nM (PI3Kβ), 10 nM (PI3Kγ), and 0.25 nM (PI3Kδ). The final concentration of ATP was 90 μM (PI3Kα), 60 μM (PI3Kβ), 100 μM (PI3Kγ), and 90 μM (PI3Kδ). The final concentration of PIP2/PS substrate was 1 μM (PIP2). The kinase reactions were allowed to proceed for 3 h at room temperature. Following incubation, the reactions were quenched by addition of 50 μL of termination buffer (100 mM HEPES, pH 7.5, 0.01% Triton X-100, 20 mM EDTA). Terminated plates were analyzed on a microfluidic electrophoresis instrument (Caliper LabChip® 3000, Caliper Life Sciences/Perkin Elmer). The change in the relative fluorescence intensity of the PI(4,5)P substrate and PI(3,4,5)P product peaks was measured. The activity in each test sample was determined as the product to sum ratio (PSR): P/(S+P), where P is the peak height of the product, and S is the peak height of the substrate. Percent inhibition (Pinh) was determined using the following equation:
Pinh=(PSR0% inh−PSRcompound)/(PSR0% inh−PSR100% inh)*100
in which PSRcompound is the product/sum ratio in the presence of compound, PSR0% inh is the product/sum ratio in the absence of compound, and the PSR100% inh is the product/sum ratio in the absence of the enzyme.

T1 sequence (Q9Y2I7 whole entry): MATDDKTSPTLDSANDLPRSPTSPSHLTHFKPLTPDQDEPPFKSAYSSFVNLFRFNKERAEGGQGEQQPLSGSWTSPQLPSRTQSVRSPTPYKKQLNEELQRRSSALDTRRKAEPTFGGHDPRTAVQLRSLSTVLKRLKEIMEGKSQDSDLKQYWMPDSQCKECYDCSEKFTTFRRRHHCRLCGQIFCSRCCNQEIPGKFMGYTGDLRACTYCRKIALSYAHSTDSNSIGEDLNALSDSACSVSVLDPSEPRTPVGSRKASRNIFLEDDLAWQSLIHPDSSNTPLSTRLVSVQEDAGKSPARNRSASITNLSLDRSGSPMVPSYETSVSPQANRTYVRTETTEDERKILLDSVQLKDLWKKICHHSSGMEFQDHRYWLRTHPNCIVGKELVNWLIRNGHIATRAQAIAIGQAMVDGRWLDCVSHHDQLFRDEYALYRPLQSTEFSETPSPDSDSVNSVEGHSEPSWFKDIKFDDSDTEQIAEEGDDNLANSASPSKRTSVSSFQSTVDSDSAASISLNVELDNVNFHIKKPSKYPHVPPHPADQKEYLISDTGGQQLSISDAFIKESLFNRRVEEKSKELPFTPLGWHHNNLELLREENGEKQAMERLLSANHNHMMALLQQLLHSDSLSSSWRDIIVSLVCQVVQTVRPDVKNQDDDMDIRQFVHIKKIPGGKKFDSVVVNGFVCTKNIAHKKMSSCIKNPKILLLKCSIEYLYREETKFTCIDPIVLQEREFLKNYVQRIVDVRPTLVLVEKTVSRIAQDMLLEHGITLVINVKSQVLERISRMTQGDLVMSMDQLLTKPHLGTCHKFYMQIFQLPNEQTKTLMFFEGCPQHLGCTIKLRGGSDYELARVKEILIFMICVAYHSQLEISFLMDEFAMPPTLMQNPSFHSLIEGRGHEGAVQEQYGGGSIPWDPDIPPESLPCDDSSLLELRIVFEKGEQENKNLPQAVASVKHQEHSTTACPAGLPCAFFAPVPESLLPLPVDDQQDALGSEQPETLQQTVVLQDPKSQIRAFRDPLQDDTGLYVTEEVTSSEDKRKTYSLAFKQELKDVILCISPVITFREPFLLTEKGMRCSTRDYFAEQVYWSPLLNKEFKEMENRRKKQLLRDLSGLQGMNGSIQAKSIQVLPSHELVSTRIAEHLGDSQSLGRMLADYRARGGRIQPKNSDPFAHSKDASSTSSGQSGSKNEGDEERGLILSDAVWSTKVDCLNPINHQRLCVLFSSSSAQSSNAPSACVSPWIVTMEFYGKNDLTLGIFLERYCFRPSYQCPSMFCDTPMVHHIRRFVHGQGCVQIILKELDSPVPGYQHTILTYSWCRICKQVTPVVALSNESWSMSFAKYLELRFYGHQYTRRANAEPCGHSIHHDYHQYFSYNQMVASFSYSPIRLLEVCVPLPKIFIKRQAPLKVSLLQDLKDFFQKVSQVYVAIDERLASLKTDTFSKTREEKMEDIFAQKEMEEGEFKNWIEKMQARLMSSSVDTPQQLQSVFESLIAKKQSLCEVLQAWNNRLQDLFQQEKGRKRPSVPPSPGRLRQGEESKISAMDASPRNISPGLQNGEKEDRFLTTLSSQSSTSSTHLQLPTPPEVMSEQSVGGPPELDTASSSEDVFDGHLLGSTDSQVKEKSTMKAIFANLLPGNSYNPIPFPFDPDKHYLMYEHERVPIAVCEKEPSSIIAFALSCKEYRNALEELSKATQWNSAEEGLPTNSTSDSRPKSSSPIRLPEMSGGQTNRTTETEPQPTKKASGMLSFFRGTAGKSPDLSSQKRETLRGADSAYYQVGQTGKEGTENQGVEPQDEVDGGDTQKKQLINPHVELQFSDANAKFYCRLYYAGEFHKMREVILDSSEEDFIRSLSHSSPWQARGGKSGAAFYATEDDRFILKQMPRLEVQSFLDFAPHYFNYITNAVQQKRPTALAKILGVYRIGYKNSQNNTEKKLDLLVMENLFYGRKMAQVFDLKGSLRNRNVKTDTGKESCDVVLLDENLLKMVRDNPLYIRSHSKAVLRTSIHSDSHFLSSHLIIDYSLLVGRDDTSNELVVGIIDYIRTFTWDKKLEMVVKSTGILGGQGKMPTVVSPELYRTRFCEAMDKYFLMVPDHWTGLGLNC

As for `c1ccc(-c2cc(Nc3nc(N4CCOCC4)c4oc(-c5ccncc5)cc4n3)[nH]n2)cc1` [Compound 1, 4-morpholino-N-(3-phenyl-1H-pyrazol-5-yl)-6-(pyridin-4-yl)furo[3,2-d]pyrimidin-2-amine hydrochloride], the EC50 in assay [1] came out at 1 µM. Moreover, the IC50 in assay [2] was 0.0014 µM; in assay [3], more than 10 µM; in assay [4], 6.78 µM.
